Measurements as given in US7087766B2, “Reagents for the quantitation of active oxygen” (Daiichi Pure Chemicals Co., Ltd., priority 2000, dated 2006).
Entries after “also recorded” stand apart in the source; their conditions may differ.

Legend:
[1] = Reactivity with hydroxyl radical (Fenton system: hydrogen peroxide and ferrous perchlorate), fluorescence intensity; settings: for changes in fluorescence intensity between before and after treatment, Hydroxyl radical: 10 μM probe, 100 mM sodium phosphate buffer pH 7.4, Iron(II) perchlorate (100 μM) and hydrogen peroxide (1 mM), 30 minutes, ex 490 nm/em 510 nm; for reactivity to hydroxyl radical (in words): condition a of Table 1
Description: (§1) The excitation spectrum and the fluorescence spectrum of the 10 μM ss-3F solution were measured using a fluorophotometer F4500 (manufactured by Hitachi, Ltd.). Slit width was 2.5 nm for both the excitation spectrum and the fluorescence spectrum, and the photomultiplier voltage was 950 V. Measurement was carried out at the excitation wavelength of 490 nm and the fluorescence wavelength of 510 nm unless otherwise specified.
Further, to investigate the reaction between ss-3F and hydroxyl radical, hydrogen peroxide was added to the 10 μM ss-3F solution to a final concentration of 1 mM, and then the mixture was added with ferrous perchlorate to a final concentration of 100 μM for each addition (5 times in total) to measure changes in fluorescence intensity with time (Fenton system).
(§2) The solutions described below were analyzed by HPLC. The absorbance at 460 nm was measured using XTerra™RP18 5 μm (4.6×250 mm) as a column and an aqueous solution of acetonitrile/0.1M NaHCO3=1/1 as an eluate with an elution rate of 1 ml/min. • (A) the 10 μM ss-3F solution • (B) a reaction solution prepared by adding EP-1 to the 10 μM ss-3F solution so as to give a final concentration of 5 mM and reacting at 37° C. for 8 hours • (C) a solution prepared by adding hydrogen peroxide to the 10 μM ss-3F solution so as to give a final concentration of 1 mM, and further adding ferrous perchlorate so as to give a final concentration of 500 μM, and then allowing to stand at room temperature for about 3 hours • (D) a 1 μM fluorescein solution
(§3) The compounds of the present invention, ss-1F, and ss-3F were tested. DCFH (2′,7′-dichlorodihydrofluorescein) was used as a control which was produced by hydrolyzing DCFH-DA (2′,7′-dichlorodihydrofluorescein diacetate; Molecular Probes, D-399) as a commercially available agent for detecting reactive oxygen species. DCFH-DA was hydrolyzed in accordance with the method by Hempel et al. (Stephen L. Hempel et al., Free Radical Biology & Medicine, 27, 146–159, 1999) under an alkali condition to obtain DCFH. […] The 10 μM DCFH solution was used for the test immediately after the preparation. […] Each of ss-1F, ss-3F, and DCFH was treated under conditions “a” to “f” for 30 minutes (2 hours and 30 minutes only for “f”) and changes in fluorescence intensity between before and after treatment were measured. The fluorescence intensity was measured under the same conditions as those in Example 4.

[2] = Reactivity with singlet oxygen (EP-1 naphthalene endoperoxide system), fluorescence intensity; settings: for changes in fluorescence intensity between before and after treatment, Singlet oxygen: 10 μM probe, 100 mM sodium phosphate buffer pH 7.4, EP-1 (100 μM), 30 minutes
Description: as §1
Subsequently, in order to investigate the reaction between ss-3F and singlet oxygen, a solution of EP-1 (a singlet oxygen generation system, i.e., the naphthalene endoperoxide compound; Saito, I, .et al., J. Am. Chem. Soc., 107, pp. 6329–6334, 1985) in dimethylformamide (DMF) was added to the 10 μM ss-3F solution to final concentrations of 1 mM, 2 mM, and 5 mM, and changes in fluorescence intensity with time was measured (EP-1 system). The temperature of the solution at this time was at 37° C. The excitation spectrum and the fluorescence spectrum of the solution after the completion of the reaction were measured under the same conditions as described above. […] Also in FIG. 3, generation of fluorescence was observed, and it was verified that ss-3F generated fluorescence upon reaction with singlet oxygen.
as §2
(§4) A fluorescence spectrum of ss-3 obtained in Example 1 was measured under the same conditions as those in 1) of Example 4, except that the excitation wavelength was at 370 nm and the fluorescence wavelength was at 450 nm. The result obtained in the absence of EP-1 was shown in FIG. 7, and the result of fluorescence spectrum of the solution after the completion of the reaction with EP-1 was shown in FIG. 8.
as §3

[3] = Reactivity with superoxide (KO2), fluorescence intensity; settings: 10 μM probe, 100 mM sodium phosphate buffer pH 7.4; KO2 (100 μM); 30 minutes
Description: as §1, §3

[4] = Reactivity with hydrogen peroxide, fluorescence intensity; settings: for changes in fluorescence intensity between before and after treatment, Hydrogen peroxide: 10 μM probe, 100 mM sodium phosphate buffer pH 7.4, Hydrogen peroxide (1 mM), 30 minutes; for reaction with hydrogen peroxide per se (in words): result of Example 6
Description: as §1, §3

[5] = Reactivity with nitrogen monoxide (NOC13), fluorescence intensity; settings: 10 μM probe, 100 mM sodium phosphate buffer pH 7.4; NOC13 (100 μM); 30 minutes
Description: as §1, §3

[6] = Autoxidation under a fluorescent lamp, fluorescence intensity; assay type: physicochemical; settings: for changes in fluorescence intensity between before and after treatment, Autoxidation: 10 μM probe, 100 mM sodium phosphate buffer pH 7.4, just under a fluorescent lamp for 2 hours and 30 minutes; for autoxidation (in words): condition f of Table 1
Description: as §1, §3

horseradish peroxidase = experiment: Specific detection of peroxidase activity (HRP/H2O2), fluorescence spectrum; assay type: biochemical; settings: 10 μM probe, horseradish peroxidase 0.2 μM, hydrogen peroxide 0 to 5.0 μM, pH 7.4; fluorescence wavelength 515 nm
Description: A 100 mM phosphate buffer (pH 7.4) of horseradish peroxidase was added to the resulting solution of ss-1F or ss-3F to a final concentration of 0.2 μM, and then hydrogen peroxide was added to final concentrations of 0, 0.01, 0.05, 0.1, 0.5, 1.0, 2.0, and 5.0 μM, and the fluorescence spectrum was immediately measured. The fluorescence spectrum was measured under the same conditions as those in 1) of Example 4, except that the fluorescence wavelength was at 515 nm.

[7] = Excitation and fluorescence spectrum of the compound itself; assay type: physicochemical
Description: as §1, §4

| SMILES | changes in fluorescence intensity between before and after treatment, Hydroxyl radical [1] | changes in fluorescence intensity with time on reaction with hydroxyl radical ([1]; 10 μM solution, hydrogen peroxide 1 mM, ferrous perchlorate 100 μM per addition (5 times)) | reactivity to hydroxyl radical (in words) [1] | changes in fluorescence intensity between before and after treatment, Singlet oxygen [2] | changes in fluorescence intensity with time on reaction with singlet oxygen ([2]; 10 μM solution, EP-1 1 mM, 2 mM, 5 mM, 37° C., ex 490 nm/em 510 nm) | changes in fluorescence intensity between before and after treatment, Superoxide [3] | changes in fluorescence intensity between before and after treatment, Hydrogen peroxide [4] | reaction with hydrogen peroxide per se (in words) [4] | changes in fluorescence intensity between before and after treatment, Nitrogen monoxide [5] | changes in fluorescence intensity between before and after treatment, Autoxidation [6] | autoxidation (in words) [6] | fluorescence intensity with HRP/H2O2 (horseradish peroxidase) | fluorescence of the compound per se ([7]; 10 μM in 100 mM sodium phosphate buffer pH 7.4, excitation 490 nm, fluorescence 510 nm) | fluorescence after reaction with singlet oxygen ([2]; after completion of the reaction with EP-1, excitation 370 nm, fluorescence 450 nm) | fluorescence of the compound itself ([7]; absence of EP-1, excitation 370 nm, fluorescence 450 nm) |
| --- | --- | --- | --- | --- | --- | --- | --- | --- | --- | --- | --- | --- | --- | --- | --- |
| Nc1ccc(Oc2ccc3c(-c4ccccc4C(=O)O)c4ccc(=O)cc-4oc3c2)cc1 [ss-3F] | 6.0 × 10^2 | increase in fluorescence intensity was observed at each time of the addition of ferrous perchlorate | high reactivity to hydroxyl radical | 8.7 | increase in fluorescence intensity was observed dependently on EP-1 concentrations as well as in time dependent manner | 5.6 | <1.0 | do not react with hydrogen peroxide | <1.0 | <1.0 | completely free from autoxidation; also recorded: no autoxidation | increase in fluorescence intensity in a concentration-dependent manner | emits no fluorescence |  |  |
| O=C(O)c1ccccc1-c1c2ccc(=O)cc-2oc2cc(Oc3ccc(O)cc3)ccc12 [ss-1F] | 3.3 × 10^2 |  | high reactivity to hydroxyl radical | 4.8 |  | 8.3 | 1.8 | do not react with hydrogen peroxide | 6.0 | <1.0 | completely free from autoxidation; also recorded: no autoxidation | increase in fluorescence intensity in a concentration-dependent manner |  |  |  |
| O=C(O)c1ccccc1C1c2cc(Cl)c(O)cc2Oc2cc(O)c(Cl)cc21 [DCFH, 2′,7′-dichlorodihydrofluorescein, reference compound] | 4.8 × 10^3 |  | successfully reacted with hydroxyl radical | 26 |  | 67 | 1.9 × 10^2 |  | 1.5 × 10^2 | 1.6 × 10^3 | high |  |  |  |  |
| Nc1ccc(Oc2ccc3ccc(=O)oc3c2)cc1 [ss-3] |  |  |  |  |  |  |  |  |  |  |  |  |  | emits fluorescence upon reaction with singlet oxygen | substantially non-fluorescent |
